Here are results for six compounds from ChEMBL document CHEMBL1136825, “Synthesis and biological evaluation of 4-deacetoxy-1,7-dideoxy azetidine paclitaxel analogues” (2003).

Common to all, as to assay type: functional, Homo sapiens
The subject of one experiment is A549. As to the kind of experiment: Concentration required for 50% inhibition of proliferation of lung cancer cell line, A549 with respect to paclitaxel was tested in vitro after 72 hr of incubation.
For a further experiment, the system named is MCF7. As to the kind of experiment: Concentration required for 50% inhibition of proliferation of breast cancer cell line, MCF-7 with respect to paclitaxel was tested in vitro after 72 hr of incubation.
The next experiment has as its system SK-OV-3. The experiment in a line: Concentration required for 50% inhibition of proliferation of ovarian cancer cell line, SKOV3 with respect to paclitexal was tested in vitro after 72 hr of incubation.

Regarding `CC(=O)O[C@H]1[C@@H]2[C@@H]3CN[C@@H]3CC[C@@]2(C)[C@@H](OC(C)=O)[C@H](OC(C)=O)C2=C(C)[C@@H](OC(=O)[C@H](O)[C@@H](NC(=O)c3ccccc3)c3ccccc3)C[C@@H]1C2(C)C`, the Ratio in the experiment on A549 came to 4.5; in the experiment on MCF7, 4.9; with SK-OV-3 it was 4.6.
The like results for `CC(=O)O[C@H]1[C@@H]2[C@@H]3CN(C(=O)C(F)(F)F)[C@@H]3CC[C@@]2(C)[C@@H](OC(C)=O)[C@H](OC(C)=O)C2=C(C)[C@@H](OC(=O)[C@H](O)[C@@H](NC(=O)c3ccccc3)c3ccccc3)C[C@@H]1C2(C)C` were, in that order, 3.2, 3.8 and 4.7.
On to `CC(=O)O[C@H]1[C@@H]2[C@@H]3CN(C(C)=O)[C@@H]3CC[C@@]2(C)[C@@H](OC(C)=O)[C@H](OC(C)=O)C2=C(C)[C@@H](OC(=O)[C@H](O)[C@@H](NC(=O)c3ccccc3)c3ccccc3)C[C@@H]1C2(C)C`, for which the Ratio in the experiment with A549 was determined as 2.9; in the experiment with MCF7, 3.6; in the experiment on SK-OV-3 it was 5.8.
For the compound `COc1ccc(OC2O[C@@H](C(=O)O[C@H]3C[C@H]4[C@@H](OC(C)=O)[C@@H]5[C@@H]6CN[C@@H]6CC[C@@]5(C)[C@@H](OC(C)=O)[C@H](OC(C)=O)C(=C3C)C4(C)C)[C@H](c3ccccc3)N2C(=O)c2ccccc2)cc1` (stereo partly drawn), the Ratio with A549 worked out at 6.8; in the experiment on MCF7, 8.6; in the experiment with SK-OV-3 it was 9.3.
The matching figures for `COc1ccc(OC2O[C@@H](C(=O)O[C@H]3C[C@H]4[C@@H](OC(C)=O)[C@@H]5[C@@H]6CN(C(C)=O)[C@@H]6CC[C@@]5(C)[C@@H](OC(C)=O)[C@H](OC(C)=O)C(=C3C)C4(C)C)[C@H](c3ccccc3)N2C(=O)c2ccccc2)cc1` (stereo partly drawn): 6.9, 9.3 and 10.2.
Take `CC(=O)O[C@H]1C(=O)[C@@]2(C)[C@H]([C@H](OC(=O)c3ccccc3)[C@]3(O)C[C@H](OC(=O)[C@H](O)[C@@H](NC(=O)c4ccccc4)c4ccccc4)C(C)=C1C3(C)C)[C@]1(OC(C)=O)CO[C@@H]1C[C@@H]2O` [PACLITAXEL]: the Ratio with A549, in the experiment on MCF7 and in the experiment with SK-OV-3 was 1 each time.
